Measurements: patent publication US20220151989A1, “LIPOIC ACID PRODRUG” (SANTEN PHARMACEUTICAL CO., LTD., priority 2019, published 2022)

Assays:
lens elasticity [1] = assay: Pharmacological Test-1: lens elasticity after instillation 3 times per day for 12 to 15 days; type: in vivo, C57BL/6J mice; conditions: for Lens elasticity improvement: 0.03% (w/v) solution, 2.5 μL/eye, right eye, 3 times per day for 12 to 15 days, 8-month-old mice, vs vehicle control; for lens elasticity improving effect: at a concentration of 0.03%
Protocol: The effects of compounds 1 to 4 on the lens elasticity were examined. The tests were conducted with reference to the methods described in Invest Ophthalmol Vis Sci, 57, 2851-2863, 2016.
A vehicle (aqueous solution) comprising 0.1% (w/v) of ethyl pyruvate, 0.269% (w/v) of sodium dihydrogenphosphate monohydrate (NaH2PO4.H2O), 0.433% (w/v) of di sodium hydrogenphosphate (Na2HPO4), 0.2% (w/v) of hydroxypropyl methylcellulose, 0.5% (w/v) of NaCl, 1.0% (w/v) of polyoxyl 35 castor oil (hereinafter also referred to as “CO35”), and purified water (appropriate amount) was prepared.
Each of compounds 1 to 4 was stirred with the addition of the vehicle to give a 0.03% (w/v) solution.
EV06 was stirred with the addition of the vehicle to give a 0.03% (w/v) solution. (Test method) 1) Each test sample (2.5 μL/eye) was instilled into the right eye of 8-month-old C57BL/6J mice with a Pipetman 3 times per day (around 9:00, 13:00, 17:00) for 12 to 15 days. 2) After the final instillation, the mice were euthanized by carbon dioxide inhalation, and then the eyeballs were extracted and rinsed with Hank's balanced salt solution (HESS). 3) The sclera near the optic nerve was cut with a razor, the lens was removed through the incision, and the removed lens was immersed in HESS. 4) The lens was placed on a glass slide, and an all-in-one fluorescence microscope BZ-9000 (Keyence) was used to capture an image of the lens (Image a). 5) Next, one cover glass (Corning^registered trade mark) 22×22 mm Square) was placed on the lens, and an image in which the thickness of the lens changed due to the weight was similarly captured (Image b). 6) A change in the lens diameter was calculated from the following Equation 1 wherein the lens diameter of Image a is subtracted from the lens diameter of Image b. Then, the lens elasticity improvement of each sample group compared with the vehicle control group was calculated from Equation 2 described below. The mean value of the vehicle control group was based on 5 eyes, the mean value of each of the sample groups of compounds 1 to 4 was based on 10 eyes, and the mean value of EV06 sample group was based on 9 eyes.
Change in lens diameter=Lens diameter in Image b of each test sample−Lens diameter in Image a of each test sample (Equation 1)
Lens elasticity improvement of each sample group=Mean change in lens diameter of each Test sample group−Mean change in lens diameter of Vehicle control group (Equation 2)

lens elasticity [2] = assay: Pharmacological Test-2: lens elasticity at different concentrations, instillation 3 times per day for 12 to 15 days; type: in vivo, C57BL/6J mice; conditions: for Lens elasticity improvement: 3 times per day for 12 to 15 days; for lens elasticity improvement compared with 1.5% EV06 group: 0.03% and 0.3% sample groups
Protocol: The effects of Compounds 1, 3, and 4 on the lens elasticity were investigated at different concentrations.
(§1) Vehicle A (aqueous solution) comprising 0.1% (w/v) of ethyl pyruvate, 0.269% (w/v) of sodium dihydrogenphosphate monohydrate (NaH2PO4.H2O), 0.433% (w/v) of disodium hydrogenphosphate (Na2HPO4), 0.2% (w/v) of hydroxypropyl methylcellulose, 0.5% (w/v) of NaCl, 0.2% (w/v) of 0035, and purified water (appropriate amount) was prepared.
as §1, with “B (emulsion)” for “A (aqueous solution)”, “CO35, 0.6% benzyl benzoate,” for “0035,”
as §1, with “Vehicle C” for “Vehicle A”, “NaCl, 1.0%” for “NaCl, 0.2%”
as §1, with “Vehicle D (emulsion)” for “Vehicle A (aqueous solution)”, “NaCl, 1.0%” for “NaCl, 0.2%”, “of CO35, 3.0% benzyl benzoate,” for “of 0035,”
A diluent (aqueous solution) comprising 0.1% (w/v) of ethyl pyruvate, 0.269% (w/v) of sodium dihydrogenphosphate monohydrate (NaH2PO4.H2O), 0.433% (w/v) of disodium hydrogenphosphate (Na2HPO4), 0.2% (w/v) of hydroxypropyl methylcellulose, 0.5% (w/v) of NaCl, and purified water (appropriate amount) was prepared.
Compound 1 was stirred with the addition of Vehicle C to prepare a 1.5% (w/v) emulsion, and the emulsion was diluted with the diluent to give a 0.3% (w/v) emulsion. Further, the resulting 0.3% (w/v) emulsion was diluted with the diluent to give a 0.03% (w/v) emulsion. Further, the resulting 0.03% (w/v) emulsion was diluted with the diluent to give a 0.003% (w/v) emulsion.
Compound 3 was stirred with the addition of Vehicle C to give a 1.5% (w/v) solution, and the resulting solution was diluted to give a 0.3% (w/v) solution. Further, the resulting 0.3% (w/v) solution was diluted with Vehicle A to give a 0.03% (w/v) solution. Further, the resulting 0.03% (w/v) solution was diluted with Vehicle A to give a 0.003% (w/v) solution.
Compound 4 was stirred with the addition of Vehicle D to give a 1.5% (w/v) emulsion, and the resulting emulsion was diluted with the diluent to prepare a 0.3% (w/v) emulsion. Further, the resulting 0.3% (w/v) emulsion was diluted with the diluent to give a 0.03% (w/v) emulsion. Further, the resulting 0.03% (w/v) emulsion was diluted with the diluent to give a 0.003% (w/v) emulsion.
EV06 was stirred with the addition of Vehicle A to give a 1.5% (w/v) solution, which was used for comparison to the samples of Compound 1 and 3.
EV06 was sonicated with the addition of Vehicle B to give a 1.5% (w/v) emulsion, which was used for comparison to Compound 4 sample.
(Test method) 1) Each test sample (2.5 μL/eye) was instilled into the right eye of 7 to 8-month-old C57BL/6J mice with a Pipetman 3 times per day (around 9:00, 13:00 and 17:00) for 12 to 15 days. 2) After the final instillation, the mice were euthanized by carbon dioxide inhalation, and then the eyeballs were extracted and rinsed with Hank's balanced salt solution (HESS). 3) The sclera near the optic nerve was cut with a razor, the lens was removed through the incision, and the removed lens was immersed in HESS. 4) The lens was placed on a glass slide, and an all-in-one fluorescence microscope BZ-9000 (Keyence) was used to capture an image of the lens (Image a). […]

[3] = 0.003% (w/v) sample, 7 to 8-month-old mice
[4] = 0.03% (w/v) sample, 7 to 8-month-old mice
[5] = 0.3% (w/v) sample, 7 to 8-month-old mice

Row | Compound | Lens elasticity improvement (lens elasticity [1]) | lens elasticity improving effect (lens elasticity [1]) | Lens elasticity improvement (lens elasticity [2]; [3]) | Lens elasticity improvement (lens elasticity [2]; [4]) | lens elasticity improvement compared with 1.5% EV06 group (lens elasticity [2]) | Lens elasticity improvement (lens elasticity [2]; [5]) | Lens elasticity improvement (lens elasticity [2]; 1.5% (w/v) emulsion in Vehicle B, Table 4 (comparison to Compound 4)) | Lens elasticity improvement (lens elasticity [2]; 1.5% (w/v) solution in Vehicle A, Table 2 (comparison to Compound 1)) | Lens elasticity improvement (lens elasticity [2]; 1.5% (w/v) solution in Vehicle A, Table 3 (comparison to Compound 3))
1 | CC(C)=CCOC(=O)CCCC[C@@H]1CCSS1 [Compound 1, 3-Methyl-2-buten-1-yl (R)-5-(1,2-dithiolan-3-yl)pentanoate] | 48.0 μm | potent lens elasticity improving effect | 13.0 μm | 37.1 μm | equivalent to or better than 1.5% EV06 group | 36.8 μm | – | – | –
2 | O=C(CCCC[C@@H]1CCSS1)OCCN1CCN(CCO)CC1 [Compound 3] | 49.9 μm | potent lens elasticity improving effect | 1.3 μm | 30.7 μm | equivalent to or better than 1.5% EV06 group | 41.8 μm | – | – | –
3 | C[N+](C)(C)CCOC(=O)CCCC[C@@H]1CCSS1.[Cl-] [EV06, Lipoic acid choline ester, reference compound] | 4.0 μm | did not show lens elasticity improving effect | – | – | – | – | 46.8 μm | 30.8 μm | 18.2 μm
